Measurements from ChEMBL document CHEMBL5543122, “Discovery of HC-7366: An Orally Bioavailable and Efficacious GCN2 Kinase Activator” (J Med Chem, 2024).
pEC50, pIC50: −log10 of the molar value.

Columns and labels:
[1] = Unbound clearance in BALB/c mouse plasma at 3 mg/kg, po and 1 mg/kg, iv measured upto 24 hrs; format: ADME, organism-based; details: in vivo
[2] = Toxicity in BALB/c nude mouse xenografted with human HT-1080 cells assessed as change in body weight at 0.3 to 3 mg/kg administered twice a day for 14 days; format: organism-based; details: in vivo, 336 h, dose 0.3-3 mg/kg, time 14 day
[3] = Unbound volume of distribution at steady state in BALB/c mouse at 3 mg/kg, po and 1 mg/kg, iv measured upto 24 hrs; format: ADME, organism-based; details: in vivo
[4] = Volume of distribution at steady state in Sprague-Dawley rat at 1 mg/kg, iv measured upto 24 hrs; format: ADME, organism-based; details: in vivo, read-out: Vdss
[5] = molecular target: T1, Serine/threonine-protein kinase Nek1 (Homo sapiens, UniProt Q96PY6); assay: Inhibition of NEK1 in human MOLM16 cells; format: cell-based
T1 sequence (Q96PY6 whole entry): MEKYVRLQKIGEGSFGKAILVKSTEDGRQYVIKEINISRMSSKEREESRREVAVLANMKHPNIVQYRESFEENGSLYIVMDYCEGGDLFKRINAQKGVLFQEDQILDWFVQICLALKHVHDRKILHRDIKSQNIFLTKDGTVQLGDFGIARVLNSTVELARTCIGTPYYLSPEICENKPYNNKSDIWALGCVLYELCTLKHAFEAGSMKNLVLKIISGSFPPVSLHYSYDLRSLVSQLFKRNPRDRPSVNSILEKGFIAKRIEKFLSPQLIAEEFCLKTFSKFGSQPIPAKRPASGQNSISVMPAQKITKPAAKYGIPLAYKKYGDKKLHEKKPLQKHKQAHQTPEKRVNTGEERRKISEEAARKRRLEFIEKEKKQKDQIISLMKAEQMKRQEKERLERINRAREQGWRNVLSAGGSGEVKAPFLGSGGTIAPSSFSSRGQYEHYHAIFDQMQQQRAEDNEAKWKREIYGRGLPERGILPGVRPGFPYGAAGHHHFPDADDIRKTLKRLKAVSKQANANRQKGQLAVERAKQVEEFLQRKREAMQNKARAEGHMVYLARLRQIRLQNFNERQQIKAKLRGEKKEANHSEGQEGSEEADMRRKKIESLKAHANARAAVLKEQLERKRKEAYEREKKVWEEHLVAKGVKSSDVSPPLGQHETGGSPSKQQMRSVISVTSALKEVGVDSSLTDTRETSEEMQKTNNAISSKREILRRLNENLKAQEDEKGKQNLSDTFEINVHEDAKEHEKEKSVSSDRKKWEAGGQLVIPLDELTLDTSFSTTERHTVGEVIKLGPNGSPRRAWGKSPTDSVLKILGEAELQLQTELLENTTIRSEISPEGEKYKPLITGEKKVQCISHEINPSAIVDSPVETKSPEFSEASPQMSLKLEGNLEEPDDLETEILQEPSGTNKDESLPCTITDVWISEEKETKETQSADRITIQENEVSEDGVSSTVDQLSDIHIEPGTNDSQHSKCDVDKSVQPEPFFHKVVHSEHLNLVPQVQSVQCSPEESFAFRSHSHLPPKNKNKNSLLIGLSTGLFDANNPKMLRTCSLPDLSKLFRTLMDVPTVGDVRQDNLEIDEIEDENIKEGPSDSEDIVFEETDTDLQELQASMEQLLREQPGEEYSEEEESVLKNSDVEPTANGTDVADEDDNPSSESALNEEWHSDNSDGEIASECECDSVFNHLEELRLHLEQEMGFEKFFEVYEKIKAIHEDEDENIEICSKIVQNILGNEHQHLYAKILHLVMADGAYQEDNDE

[6] = molecular target: T2, Eukaryotic translation initiation factor 2-alpha kinase 3 (Homo sapiens, UniProt Q9NZJ5); assay: Activation of PERK in HEK293 cells transfected with ATF4 response element preincubated for 30 mins followed by tunicamycin addition and measured after 6 hrs by One-Glo reagent based plate reader assay; format: cell-based
T2 sequence (Q9NZJ5 whole entry): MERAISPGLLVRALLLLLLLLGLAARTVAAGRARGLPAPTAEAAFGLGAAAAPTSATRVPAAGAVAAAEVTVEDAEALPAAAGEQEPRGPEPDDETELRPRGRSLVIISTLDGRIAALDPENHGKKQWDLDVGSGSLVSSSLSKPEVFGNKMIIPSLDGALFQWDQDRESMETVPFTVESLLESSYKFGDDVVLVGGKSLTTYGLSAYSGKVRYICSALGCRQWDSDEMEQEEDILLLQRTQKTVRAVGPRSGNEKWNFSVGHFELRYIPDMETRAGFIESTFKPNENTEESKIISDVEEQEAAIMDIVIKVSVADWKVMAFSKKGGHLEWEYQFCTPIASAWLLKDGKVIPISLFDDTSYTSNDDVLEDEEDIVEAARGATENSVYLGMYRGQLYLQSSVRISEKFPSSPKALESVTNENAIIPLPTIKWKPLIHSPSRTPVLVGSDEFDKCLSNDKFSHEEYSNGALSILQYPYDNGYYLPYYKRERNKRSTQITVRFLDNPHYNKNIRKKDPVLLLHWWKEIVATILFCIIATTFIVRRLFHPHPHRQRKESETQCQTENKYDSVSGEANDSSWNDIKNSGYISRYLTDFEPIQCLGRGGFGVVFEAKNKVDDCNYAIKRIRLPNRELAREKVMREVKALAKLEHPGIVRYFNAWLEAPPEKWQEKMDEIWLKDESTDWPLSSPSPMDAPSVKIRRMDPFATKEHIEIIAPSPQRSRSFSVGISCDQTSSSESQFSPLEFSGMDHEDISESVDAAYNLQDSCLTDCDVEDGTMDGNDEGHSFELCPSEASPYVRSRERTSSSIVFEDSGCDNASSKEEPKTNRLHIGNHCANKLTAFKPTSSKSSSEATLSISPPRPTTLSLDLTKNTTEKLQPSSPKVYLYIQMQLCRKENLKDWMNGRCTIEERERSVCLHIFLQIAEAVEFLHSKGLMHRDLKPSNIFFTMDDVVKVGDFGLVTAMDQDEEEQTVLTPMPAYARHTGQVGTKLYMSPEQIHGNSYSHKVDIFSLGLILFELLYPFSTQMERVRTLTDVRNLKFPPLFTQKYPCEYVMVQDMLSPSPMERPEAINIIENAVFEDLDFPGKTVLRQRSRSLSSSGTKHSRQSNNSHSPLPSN

CL free [1]: 70 mL/min/kg
fVdss [3]: 60 L/kg
Vd [4]: 0.093 L/kg
pIC50 [5]: 5.03
pEC50 [6]: 5.16
SMILES: CNC(=O)c1ncn2cc(-c3c(F)ccc(NS(=O)(=O)c4cc(Cl)cnc4OC)c3F)ncc12
Activity [2]: Non-Toxic
